{"source": "patent US20250170252A1", "about": "“QUINONE PROTECTED FORMS AND CONJUGATES” (CAMBRIDGE ENTERPRISE LIMITED, priority 2022, published 2025)", "key": {"[1]": {"assay": "In vitro redox-cycling ability, phenol red/horseradish peroxidase assay", "assay_type": "biochemical", "conditions": "HRP/phenol-red reporter assay, absorbance at 610 nm; up to 25 μM", "procedure": "In vitro redox cycling capability of compounds was assessed by phenol red/horseradish peroxidase (HRP) assay by adaption of a previously described protocol (Assay Drug Dev. Technol., 2008, 6, 505-518). Briefly, stocks were prepared as follows: (1) DTT to a concentration of 2.4 μM in PBS pH 7.4 buffer; (2) compound stocks in PBS pH 7.4 buffer to 3× the desired concentration by 1000× dilution of DMSO stocks; (3) a stock of phenol-red-HRP detection reagent containing 300 μg/mL phenol red and 180 μg/mL HRP enzyme in PBS pH 7.4 buffer; (4) a stock of 1 M NaOH in water; (5) a stock of 100 μM H2O2 in PBS prepared by addition of a 30% solution of H2O2 in water into 1000 μL of PBS. Into each well of a 96 well clear flat-bottomed plate was then added 40 μL of compound stock in PBS followed by 40 μL of DTT stock, followed immediately by 40 μL of phenol-red-HRP reagent. A positive control with 100 μM H2O2 added in place of compound was included. The plate was incubated in the dark at room temperature for 15 min. Following this 20 μL of 1 M NaOH was added to each well to terminate the reaction. Absorbance was immediately measured at 610 nm (MiniMax i3x Imager, Molecular Devices). Absorbance of treated wells was normalised to control wells treated with PBS only (zero redox cycling). All readings were performed in triplicate and error bars display standard error of the mean."}, "[2]": {"test_system": "HCT-116 (colon cancer cell line)", "assay": "Viability assay (CellTiter-Blue), HCT-116", "assay_type": "cell-based", "conditions": "Homo sapiens", "procedure": "Assays assessing cytotoxicity of β-lapachone and derivatives were performed by CellTiter-Blue assay (Promega) according to the manufacturer's instructions. Briefly, adherent cancer-cell lines were plated at 20,000 cells/well in 96 well plates or suspension cell lines were plated at a concentration of 2×10^5 cells/mL in 24 well plates. Compound stocks in media were made by dilution of DMSO stocks containing the compound of interest to obtain a final in-plate DMSO concentration of only 0.1%. Incubation was performed for 48 h. Following incubation, media was replaced with media containing CellTiter-Blue (Promega) in 1:10 dilution and the plates were incubated for 1.5-4 h. The fluorescence of the plates was recorded (excitation 555 nm, emission 585 nm, […] Reader, Molecular Devices). Cell viability was calculated by division of the fluorescence intensity of treated wells by that of the calculated average fluorescence intensity of replicate negative control wells containing cells with 0.1% DMSO only. Values and reported error bars represent the mean and standard error of the mean of three triplicate repeats for each concentration tested."}, "[3]": {"test_system": "MCF-7 (breast cancer cell line)", "assay": "Viability assay (CellTiter-Blue), MCF-7", "assay_type": "cell-based", "conditions": "Homo sapiens, MCF7", "method": "Assays assessing cytotoxicity of β-lapachone and derivatives were performed by CellTiter-Blue assay (Promega) according to the manufacturer's instructions. Briefly, adherent cancer-cell lines were plated at 20,000 cells/well in 96 well plates or suspension cell lines were plated at a concentration of 2×10^5 cells/mL in 24 well plates. Compound stocks in media were made by dilution of DMSO stocks containing the compound of interest to obtain a final in-plate DMSO concentration of only 0.1%. Incubation was performed for 48 h. Following incubation, media was replaced with media containing CellTiter-Blue (Promega) in 1:10 dilution and the plates were incubated for 1.5-4 h. The fluorescence of the plates was recorded (excitation 555 nm, emission 585 nm, MiniMax i3x Reader, Molecular Devices).\nCell viability was calculated by division of the fluorescence intensity of treated wells by that of the calculated average fluorescence intensity of replicate negative control wells containing cells with 0.1% DMSO only. Values and reported error bars represent the mean and standard error of the mean of three triplicate repeats for each concentration tested. IC50 values were calculated using GraphPad Prism 8 software."}, "5-LO": {"target": "T1, 5-LO (Homo sapiens, UniProt P09917)", "T1 sequence (P09917 1-674)": "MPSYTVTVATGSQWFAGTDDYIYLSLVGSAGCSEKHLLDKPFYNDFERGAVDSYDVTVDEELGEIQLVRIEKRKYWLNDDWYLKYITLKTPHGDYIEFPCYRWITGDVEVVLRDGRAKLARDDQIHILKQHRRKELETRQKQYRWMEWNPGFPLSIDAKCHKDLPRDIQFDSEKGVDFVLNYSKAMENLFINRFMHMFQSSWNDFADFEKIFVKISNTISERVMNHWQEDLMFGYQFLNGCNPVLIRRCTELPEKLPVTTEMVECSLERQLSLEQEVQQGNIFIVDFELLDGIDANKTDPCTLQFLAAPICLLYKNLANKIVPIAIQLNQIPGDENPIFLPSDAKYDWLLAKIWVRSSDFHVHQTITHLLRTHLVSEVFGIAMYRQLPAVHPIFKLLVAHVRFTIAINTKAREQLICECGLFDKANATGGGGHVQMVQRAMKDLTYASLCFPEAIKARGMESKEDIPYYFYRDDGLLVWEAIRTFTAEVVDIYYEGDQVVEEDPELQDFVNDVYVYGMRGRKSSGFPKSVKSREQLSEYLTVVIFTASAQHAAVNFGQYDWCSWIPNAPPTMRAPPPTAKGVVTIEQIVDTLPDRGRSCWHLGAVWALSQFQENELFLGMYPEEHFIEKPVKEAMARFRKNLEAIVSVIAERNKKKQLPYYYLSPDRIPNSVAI", "conditions": "previous work, Chem. Sci. 2018; cited from earlier work"}}}
{"smiles": "CC1(C)CCC2=C(O1)c1ccccc1C(=O)C2=O", "note": "[Compound 1, β-lapachone, reference compound]", "values": [{"measurement": "redox activity (in vitro redox-cycling capability)", "setting": "[1]", "result": "saturates the assay above 10 μM concentration"}, {"measurement": "IC50", "setting": "[2]", "result": 1.1, "unit": "µM"}, {"measurement": "IC50", "setting": "[3]", "result": 1.9, "unit": "µM"}, {"measurement": "inhibition of 5-LO", "setting": "5-LO", "result": "strongly inhibits"}]}
